Data on three molecules can be found in PMC7308271, “Discovery of a new class of orthosteric antagonists with nanomolar potency at extrasynaptic GABAA receptors” (Scientific Reports, 2020).

The structures appear in SMILES notation. Read-outs that look alike come from different tables or passages of the source.

The target of data set [1] is T1, human α2β2γ2 GABAΑ receptor (Homo sapiens, UniProt P47869+P47870).
T1 construct: expressed in transfected cells; host or cells: HEK background (HEK293 Flp-In stably expressing NPBWR2), transient α:β:γ 1:1:2
Put plainly: FMP assay at α2β2γ2 GABAA receptors in HEK cells. Format: cell-based. The protocol:
(§1) HEK293 cells were maintained in DMEM containing GlutaMAX-I, supplemented with 10% FBS and 1% penicillin-streptomycin and incubated at 37 °C and a humidity of 5% CO2. For expression of δ-containing GABAΑ receptors, a HEK293 Flp-In^ΤΜ cell line stably expressing the human GABAΑ δ-subunits (referred to as δ-HEK) was used and the γ-containing subtypes was expressed in a background HEK293 Flp-In^ΤΜ cell line stably expressing the G-protein coupled peptide receptor NPBWR2 (referred to as HEK background)[26], both positively selected for using 200 μg/mL hygromycin B. α1β2γ2 receptors were stably expressed in a HEK293 cell line maintained as above but with no selection (gift from Marianne L. Jensen, Neurosearch).
(§2) To express recombinant GABAΑ receptors human α1, α2, α3, α5, α6, β2, γ2 (pcDNA3.1/Zeo) and α4, β1 (pUNIV)[26] subunit cDNA were transiently transfected into either δ-HEK or HEK background cells. δ-HEK cells were transfected with α- and β-subunits in a 1:1 ration whereas HEK background cells were transfected with α-, β- and γ-subunits in a 1:1:2 ratio. Human BGT1 (pcDNA5/FRT)[43] was transiently transfected into the δ-HEK cell line. δ-HEK cells transfected for whole-cell patch-clamp recordings were co-transfected with green fluorescent protein (GFP) as well as α- and β-subunits in a 0.5:1:1 ratio (0.8 μg + 1.6 μg + 1.6 μg in a 6 cm dish) in order to identify transfected cells. The transfection was carried out using Polyfect as transfection reagent according to the manufactures protocol expect for using half the recommended volume of Polyfect.
(§3) The FMP assay was performed as previously described with a few modifications. […] Data was obtained as changes in fluorescence units (∆RFU) by measuring emission at 560 nm caused by excitation at 530 nm. […]
(§4) Data obtained in the FMP assay are given as relative changes in fluorescence units (ΔRFU) by subtracting the average of the baseline fluorescence signal from the peak fluorescence signal after compound addition. […]

The target in data set [2] is T2, human α1β2γ2 GABAΑ receptor (Homo sapiens, UniProt P14867+P47870).
T2 construct: expressed in transfected cells; host or cells: HEK293 line stably expressing α1β2γ2 (gift from Marianne L. Jensen, Neurosearch)
Nature of the data set: FMP assay at α1β2γ2 GABAA receptors in HEK cells. It is filed as cell-based. The protocol:
as §1, §2, §3, §4

Data set [3] deals with MDR1 (P-glycoprotein), human. Nature of the data set: Bidirectional membrane permeability in MDR1-MDCK cells. The note with it: dog, triplicate, read-out: basal to apical permeability. It is filed as in vitro ADME, canine. The protocol:
(§5) Bidirectional permeability was tested for 018 and 2027 in the Madin-Darby canine kidney (MDCK) cell line expressing human multidrug resistance protein (MDR1, P-glycoprotein) (referred to as MDR1-MDCK cells) as described previously. To calculate efflux ratio the permeability in the basal-to-apical direction was divided by the permeability in the apical-to-basal direction. The obtained data is from triplicate measurements.

The test system of the next data set is MDR1 (P-glycoprotein). The data set is described as above. It is filed as in vitro ADME, canine. The note with it: dog, both before and after. The protocol: as §5
In data set [4] the target is [^3H]muscimol binding (GABAΑ receptors) in rat brain cortical homogenate. Put plainly: [3H]muscimol radioligand binding in rat cortical homogenate. The settings on record: for Ki: 5 nM [^3H]muscimol, n = 4; for pKi ± SEM: [^3H]muscimol. The protocol: The binding studies were performed using rat brain homogenate prepared from the cortex of adult Sprague-Dawley male rats (250–350 g) obtained from commercial breeders (Janvier Laboratories, Le Genest-Saint-Isle, France), housed and cared for according to the Danish legislation regulating animal experiments and the European Communities Council Directive (2010/63/EU). Homogenate preparation was performed as described earlier. On the day of assay, membranes stored at −20 °C was quickly thawed followed by addition of 40 volumes of ice-cold binding buffer (50 mM TRIS-HCl buffer; pH 7.4) and homogenization using and UltraTurrax homogenizer before being centrifuged at 48,000 ×g for 10 minutes at 4 °C. This washing procedure was repeated 4 times before the final pellet was suspended in the binding buffer to final concentration of approximately 0.5 mg/mL protein.
The radioligand binding assay was performed using [^3H]muscimol in a 96-well format. [^3H]muscimol (5 nM) was incubated with 75 μg/well protein with or without test compound or control at 0 °C for 1 hour in a total volume of 200 μL binding buffer in triplicates. […] After incubation, the binding reaction was terminated by rapid filtration through GF/C unifilters (PerkinElmer) with the use of a 96-well Packard FilterMate cell harvester (PerkinElmer), followed by 3 times washing in 250 μL ice-cold binding buffer. After drying at 65 °C, microscintillation fluid was added to the dried filters and the radioactivity bound to the filter was quantified in a Packard TopCounter microplate scintillation counter. The obtained binding data was converted into specific binding (% of control) for each data point and fitted to the one-site competition model by […] (GraphPad Prism, version 8.2.1). The fitted IC50 values were converted into Ki values by means of the Cheng-Prusoff equation[46]. Data are from three independent experiments, performed with three technical replicates and Ki values are given as pKi ± SEM.

T1 sequence (P47869 29-451): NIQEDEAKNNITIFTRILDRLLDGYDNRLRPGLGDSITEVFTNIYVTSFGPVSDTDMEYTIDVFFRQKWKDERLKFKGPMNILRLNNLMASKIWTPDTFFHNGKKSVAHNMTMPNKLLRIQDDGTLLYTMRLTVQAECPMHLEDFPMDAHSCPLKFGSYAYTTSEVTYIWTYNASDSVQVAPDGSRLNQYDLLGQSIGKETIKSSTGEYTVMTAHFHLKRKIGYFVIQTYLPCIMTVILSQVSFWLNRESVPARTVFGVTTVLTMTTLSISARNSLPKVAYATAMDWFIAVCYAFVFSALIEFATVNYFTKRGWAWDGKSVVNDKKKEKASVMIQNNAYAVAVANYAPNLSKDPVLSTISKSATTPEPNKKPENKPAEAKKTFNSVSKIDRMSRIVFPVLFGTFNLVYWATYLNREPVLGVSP
T1 sequence (P47870 25-512 limits assumed): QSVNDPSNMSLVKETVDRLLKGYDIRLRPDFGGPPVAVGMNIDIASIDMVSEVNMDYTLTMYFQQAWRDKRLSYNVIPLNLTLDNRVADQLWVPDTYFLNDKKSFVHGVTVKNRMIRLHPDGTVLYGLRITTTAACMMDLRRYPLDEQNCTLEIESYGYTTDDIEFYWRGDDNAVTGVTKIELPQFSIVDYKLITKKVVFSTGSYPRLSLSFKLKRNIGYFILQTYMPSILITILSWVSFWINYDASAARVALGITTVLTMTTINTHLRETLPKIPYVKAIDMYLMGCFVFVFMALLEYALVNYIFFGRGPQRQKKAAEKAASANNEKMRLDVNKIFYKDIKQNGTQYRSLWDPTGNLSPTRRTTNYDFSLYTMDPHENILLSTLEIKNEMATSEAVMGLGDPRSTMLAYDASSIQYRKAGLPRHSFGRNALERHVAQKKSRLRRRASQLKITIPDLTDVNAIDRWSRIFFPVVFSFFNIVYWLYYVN
T1 sequence (P18507 40-475 partner): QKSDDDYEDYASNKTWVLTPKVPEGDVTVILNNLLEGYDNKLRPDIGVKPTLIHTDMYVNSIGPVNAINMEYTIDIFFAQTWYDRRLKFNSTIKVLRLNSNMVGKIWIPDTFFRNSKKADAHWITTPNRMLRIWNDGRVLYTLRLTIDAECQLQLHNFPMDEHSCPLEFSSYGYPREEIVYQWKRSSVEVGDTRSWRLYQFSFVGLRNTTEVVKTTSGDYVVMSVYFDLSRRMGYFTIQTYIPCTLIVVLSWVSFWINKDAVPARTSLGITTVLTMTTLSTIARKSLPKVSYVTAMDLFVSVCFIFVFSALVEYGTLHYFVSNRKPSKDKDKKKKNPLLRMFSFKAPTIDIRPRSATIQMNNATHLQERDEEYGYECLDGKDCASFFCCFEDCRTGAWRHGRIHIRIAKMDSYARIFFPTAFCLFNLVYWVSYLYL
T2 sequence (P14867 28-456): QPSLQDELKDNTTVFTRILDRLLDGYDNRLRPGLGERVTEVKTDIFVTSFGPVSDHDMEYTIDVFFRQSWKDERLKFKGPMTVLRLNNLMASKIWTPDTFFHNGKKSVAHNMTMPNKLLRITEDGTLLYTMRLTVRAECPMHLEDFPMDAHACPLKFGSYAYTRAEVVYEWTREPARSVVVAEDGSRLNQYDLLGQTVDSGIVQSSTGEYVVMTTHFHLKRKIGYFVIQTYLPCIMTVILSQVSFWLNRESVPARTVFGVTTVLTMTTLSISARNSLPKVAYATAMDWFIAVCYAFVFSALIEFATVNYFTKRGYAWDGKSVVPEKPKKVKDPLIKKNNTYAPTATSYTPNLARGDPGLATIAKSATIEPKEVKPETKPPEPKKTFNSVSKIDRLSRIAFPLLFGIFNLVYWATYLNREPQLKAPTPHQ
T2 sequence (P47870 25-512 limits assumed): as the sequence (P47870 25-512 limits assumed) above
T2 sequence (P18507 40-475 partner): as the sequence (P18507 40-475 partner) above

As to `NCCCC(=O)O` [GABA], the “GABA EC80” value in data set [1] (α2β2γ2, calculated from GABA potencies) is 10 µM; in data set [2] (α1β2γ2, calculated from GABA potencies) it was 8.0 µM.
For orientation: Ki means a measure of affinity in units of concentration, obtained from inhibition or displacement. Consider `O=C(Nc1cccc(C(=O)N2CCC3(CCNCC3)CC2)c1)c1cccs1` [compound 018, N-(3-(3,9-diazaspiro[5.5]undecane-3-carbonyl)phenyl)thiophene-2-carboxamide], for which the IC50 in data set [1] (read-out: pIC50 ± SEM (converted)) was 0.324 µM. The molecule also came in with an IC50 in data set [2] of 0.79 µM. Further, the Papp B→A in data set [3] is 0.79 ×10⁻⁶ cm/s. The recovery with MDR1 (P-glycoprotein) was over 85%. Further, in data set [4], the Ki came out at 0.02 µM and the “pKi ± SEM” value was 7.71 ± 0.06.
As for `CC(=O)Nc1cccc(C(=O)N2CCC3(CCNCC3)CC2)c1` [compound 2027, N-(3-(3,9-diazaspiro[5.5]undecane-3-carbonyl)phenyl)acetamide], the IC50 in data set [1] (read-out: IC50) is 2.96 µM. This molecule also came in with an IC50 in data set [2] of 4.96 µM. The Papp B→A in data set [3] was determined as 0.67 ×10⁻⁶ cm/s. In the data set on MDR1 (P-glycoprotein), this molecule had a recovery of over 85%. Also, in data set [4], the Ki amounted to 0.56 µM and the “pKi ± SEM” value turned out to be 6.25 ± 0.06.
